Where “and” joins values, the source holds several entries; their conditions need not be identical. Identical values can stand only once. Like-named read-outs stand apart in the source and are kept apart here.
Experiments:
DYRK1A = DYRK1A (Homo sapiens, UniProt Q13627); assay: FRET-based LanthaScreen Eu Kinase Binding Assay for DYRK1A; conditions: for IC50: 10 point LanthaScreen Eu Kinase Binding Assay; for inhibition at 0.3 µM: read-out: % DYRK1A Inhibition 300 nM; for inhibition at 1 µM: read-out: % DYRK1A Inhibition 1000 nM; for fold less potent DYRK1A inhibition as compared to harmine: relative to harmine (27 nM); for DYRK1A inhibition (result in words): in vitro at the concentrations tested (1000 nM and 300 nM)
Protocol: Compounds were tested for DYRK1A binding activity by a commercial kinase profiling services, Life Technologies which uses the FRET-based LanthaScreen® Eu Kinase Binding Assay. Compounds were screened for DYRK1A activity at concentrations of 1000 nM and 300 nM in duplicates. The IC50 was determined by 10 point LanthaScreen® Eu Kinase Binding Assay in duplicates.

human β-cells = assay: Human β-cell proliferation assay (Ki67-insulin co-immunolabeling, dispersed human islets); format: cell-based; conditions: for human β-cell proliferation at screening concentration: 10 μM, Ki-67-insulin co-immunolabeling after 4 days, n = 3
Protocol: Human pancreatic islets were obtained from the NIH/NIDDK-supported Integrated Islet Distribution Program (IIDP) Duarte, CA, USA (https://iidp.coh.org) and studied using protocols that have been published in detail. Briefly, islets were first dispersed with Accutase (Sigma, St. Louis, MO, USA) onto coverslips, and treated with vehicle (0.1% DMSO) or with harmine-related compounds in RPMI1640 complete medium for 96 h. Then the cells were then, fixed with formaldehyde and immunolabeled for insulin and Ki67 as described below. Total insulin-positive cells and cells double positive Ki67 and insulin positive cells were imaged and counted. Islets from 3–5 different adult donors were tested as described in Figure 4. At least 1000 β-cells were counted for human islet donor.

[1] = 1-2b at 30 μM vs harmine at 10 μM
[2] = compound at 1000 nM, duplicates

| SMILES | inhibition at 0.3 µM (DYRK1A; compound at 300 nM, duplicates) [%] | inhibition at 1 µM (DYRK1A; [2]) [%] | other results |
| --- | --- | --- | --- |
| COC(=O)COc1ccc2c(c1)[nH]c1c(C)nccc12 [1-2a, 2-(7-Oxy-1-methyl-9-H-b-carbolin)acetic acid methyl ester] |  |  | IC50 (DYRK1A; duplicates): 194 ± 11.7 nM; inhibition at 0.3 µM (DYRK1A): 58%; inhibition at 1 µM (DYRK1A): 85% |
| COC(=O)CCOc1ccc2c(c1)[nH]c1c(C)nccc12 [1-2b, 3-(7-Oxy-1-methyl-9-H-b-carbolin)propionic acid methyl ester] |  |  | human β-cell proliferation at screening concentration (human β-cells): exhibit human β-cell proliferation; human β-cell proliferation relative to harmine (in words) (human β-cells; [1]): half that of harmine; maximal human β-cell proliferation as % that of harmine (human β-cells; [1]): 66%; human β-cell proliferation dose-response (human β-cells; dose-response up to 30 μM, n = 3 human islet donors for each dose): induced proliferation in a dose-dependent manner; IC50 (DYRK1A; duplicates): 89 nM and 89.7 nM; fold less potent DYRK1A inhibition as compared to harmine (DYRK1A): 4 fold and ~ 3 fold |
| COC(=O)CCCOc1ccc2c(c1)[nH]c1c(C)nccc12 [1-2c, 4-(7-Oxy-1-methyl-9-H-b-carbolin)butnoic acid methyl ester] | 47 | 78 |  |
| COC(=O)CCCCOc1ccc2c(c1)[nH]c1c(C)nccc12 [1-2d, 5-(7-Oxy-1-methyl-9-H-b-carbolin)pentanoic acid methyl ester] | 35 | 67 |  |
| COC(=O)CCCCCOc1ccc2c(c1)[nH]c1c(C)nccc12 [1-2e, 6-(7-Oxy-1-methyl-9-H-b-carbolin)hexanoic acid methyl ester] |  |  | IC50 (DYRK1A; duplicates): 134 ± 4.55 nM; inhibition at 0.3 µM (DYRK1A): 56%; inhibition at 1 µM (DYRK1A): 81% |
| Cc1nccc2c1[nH]c1cc(OCCNC(=O)OC(C)(C)C)ccc12 [1-2k, 2-(7-Oxy-1-methyl-9-H-b-carbolin)ethyl tert-butyl carbamate] | 35 | 61 |  |
| Cc1nccc2c1[nH]c1cc(OCCCNC(=O)OC(C)(C)C)ccc12 [1-2l, 3-(7-Oxy-1-methyl-9-H-b-carbolin)propyl tert-butyl carbamate] | 24 | 50 |  |
| Cc1nccc2c1[nH]c1cc(OCCCCNC(=O)OC(C)(C)C)ccc12 [1-2m, 4-(7-Oxy-1-methyl-9-H-b-carbolin)butyl tert-butyl carbamate] | 31 | 58 |  |
| Cc1nccc2c1[nH]c1cc(OCCOCCNC(=O)OC(C)(C)C)ccc12 [1-2n, 2-((7-Oxy-1-methyl-9-H-b-carbolin)ethoxy)ethyl tert-butyl carbamate] | 27 | 48 |  |
| COCCOc1ccc2c(c1)[nH]c1c(C)nccc12 [1-2o, 2-(7-oxy-1-methyl-9-H-b-carbolin)methoxyethyl] |  |  | DYRK1A inhibition (result in words) (DYRK1A): not favorable for the DYRK1A inhibition; inhibition at 0.3 µM (DYRK1A): 23%; inhibition at 1 µM (DYRK1A): 48% |
| CCOCCOc1ccc2c(c1)[nH]c1c(C)nccc12 [1-2p, 3-(7-Oxy-1-methyl-9-H-b-carbolin)ethoxyethyl] | 19 | 37 | DYRK1A inhibition (result in words) (DYRK1A): not favorable for the DYRK1A inhibition |
| Cc1nccc2c1[nH]c1cc(OCC(N)=O)ccc12 [1-3a, 2-(7-Oxy-1-methyl-9-H-b-carbolin)acetamide] | 10 | 30 |  |
| Cc1nccc2c1[nH]c1cc(OCCC(N)=O)ccc12 [1-3b, 3-(7-Oxy-1-methyl-9-H-b-carbolin)propionamide] |  |  | human β-cell proliferation at screening concentration (human β-cells): exhibit human β-cell proliferation; IC50 (DYRK1A; duplicates): 91 nM; fold less potent DYRK1A inhibition as compared to harmine (DYRK1A): ~ 3 fold |
| Cc1nccc2c1[nH]c1cc(OCCCC(N)=O)ccc12 [1-3c, 4-(7-Oxy-1-methyl-9-H-b-carbolin)butanamide] | 32 | 58 |  |
| Cc1nccc2c1[nH]c1cc(OCCCCC(N)=O)ccc12 [1-3d, 5-(7-Oxy-1-methyl-9-H-b-carbolin)pentanamide] | 67 | 88 |  |
| Cc1nccc2c1[nH]c1cc(OCCCCCC(N)=O)ccc12 [1-3e, 6-(7-Oxy-1-methyl-9-H-b-carbolin)hexanamide] | 39 | 67 |  |

| SMILES | inhibition at 0.3 µM (DYRK1A; compound at 300 nM, duplicates) [%] | inhibition at 1 µM (DYRK1A; [2]) [%] | other results |
| --- | --- | --- | --- |
| Cc1nccc2c1[nH]c1cc(OCC(=O)O)ccc12 [1-4a, 2-(7-Oxy-1-methyl-9-H-b-carbolin)acetic acid] |  |  | inhibition at 0.3 µM (DYRK1A): 3%; inhibition at 1 µM (DYRK1A): 6% |
| Cc1nccc2c1[nH]c1cc(OCCC(=O)O)ccc12 [1-4b, 3-(7-Oxy-1-methyl-9-H-b-carbolin)propionic acid] |  |  | IC50 (DYRK1A; duplicates): 1810 ± 101 nM |
| Cc1nccc2c1[nH]c1cc(OCCCC(=O)O)ccc12 [1-4c, 4-(7-Oxy-1-methyl-9-H-b-carbolin)butnoic acid] | 6 | 19 |  |
| Cc1nccc2c1[nH]c1cc(OCCCCC(=O)O)ccc12 [1-4d, 5-(7-Oxy-1-methyl-9-H-b-carbolin)pentanoic acid] | 20 | 44 |  |
| Cc1nccc2c1[nH]c1cc(OCCCCCC(=O)O)ccc12 [1-4e, 6-(7-Oxy-1-methyl-9-H-b-carbolin)hexanoic acid] | 43 | 74 |  |
| Cc1nccc2c1[nH]c1cc(OCCN)ccc12 [1-5a, 2-(7-Oxy-1-methyl-9-H-b-carbolin)ethylamine hydrochloric acid] | 12 | 25 |  |
| Cc1nccc2c1[nH]c1cc(OCCCN)ccc12 [1-5b, 3-(7-Oxy-1-methyl-9-H-b-carbolin)propylamine hydrochloric acid] |  |  | inhibition at 0.3 µM (DYRK1A): 8%; inhibition at 1 µM (DYRK1A): 28% |
| Cc1nccc2c1[nH]c1cc(OCCCCN)ccc12 [1-5c, 4-(7-Oxy-1-methyl-9-H-b-carbolin)butylamine hydrochloric acid] | 15 | 42 |  |
| Cc1nccc2c1[nH]c1cc(OCCOCCN)ccc12 [1-5d, 2-((7-Oxy-1-methyl-9-H-b-carbolin)ethoxy)ethylamine hydrochloric acid] | 15 | 32 |  |
| CC(=O)NCCOc1ccc2c(c1)[nH]c1c(C)nccc12 [1-6a, 2-(7-Oxy-1-methyl-9-H-b-carbolin)-2-acetyl-ethylamine] | 24 | 49 |  |
| CC(=O)NCCCOc1ccc2c(c1)[nH]c1c(C)nccc12 [1-6b, 3-(7-Oxy-1-methyl-9-H-b-carbolin) -2-acetyl-propylamine] | 22 | 49 |  |
| CC(=O)NCCCCOc1ccc2c(c1)[nH]c1c(C)nccc12 [1-6c, 4-(7-Oxy-1-methyl-9-H-b-carbolin) -2-acetyl-butylamine] | 45 | 69 |  |
| CC(=O)NCCOCCOc1ccc2c(c1)[nH]c1c(C)nccc12 [1-6d, 2-((7-Oxy-1-methyl-9-H-b-carbolin)ethoxy)-2-acetyl-ethylamine] | 17 | 41 |  |
| Cc1nccc2c1[nH]c1cc(N)ccc12 [1-9, 7-Amino-1-methyl-9H-b-carboline] |  |  | DYRK1A inhibition (result in words) (DYRK1A): completely lost its DYRK1A inhibitory activity; inhibition at 0.3 µM (DYRK1A): 8%; inhibition at 1 µM (DYRK1A): 21% |
| Cc1nccc2c1[nH]c1cc(NC(=O)c3ccccc3)ccc12 [1-11, 7-Benzamide-1-methyl-9H-b-carboline] | 48 | 77 | IC50 (DYRK1A; duplicates): 389 ± 32.6 nM; DYRK1A inhibition (result in words) (DYRK1A): partially recovered |
| Cc1nccc2c1[nH]c1cc(OC(=O)NC(C)C)ccc12 [1-12, 1-Methyl-9H-pyrido[3,4-b]indol-7-yl isopropylcarbamate] |  |  | DYRK1A inhibition (result in words) (DYRK1A): moderately active; inhibition at 0.3 µM (DYRK1A): 42%; inhibition at 1 µM (DYRK1A): 69% |
